Results from US20220125051A1, “PRE-HARVEST DESICCATION METHOD” (SYNGENTA CROP PROTECTION AG, priority 2019, published 2022).
Values joined by “and” are separate entries in the source; they are usually repeats but may differ in a detail not shown here. Identical values can stand only once.

Tests used:
Assay type in all cases: in vivo
Eleusine indica (ELEIN) [1] = assay: Post-emergence efficacy, Method C; details: 400 g/Ha, evaluated at 21 days, 100=total damage to plant, 0=no damage
Method: (§1) An “instant formulation”, known as the IF50, containing 50 g/L of the “technical” (i.e. unformulated) active ingredient was prepared by dissolving the active ingredient in a mixture of organic solvents and emulsifier, details of which are provided in the table. This IF50 was then mixed with a small, variable amount of acetone to aid dissolution, before addition of a 1% v/v aqueous solution in water of the adjuvant Empicol ESC70 3EO (Sodium lauryl ether sulphate) and 1% v/v Ammonium sulphate, as the aqueous diluent, to form an aqueous spray solution which contains a predetermined concentration of the active ingredient (which varies depending on the application rate of the active ingredient to the plants).
(§2) The composition of the mixture of organic solvents and emulsifier used as a base for the instant formulation was as given above in Table IF.
(§3) This aqueous spray solution was then sprayed onto the plants after about 21 days of cultivation. The plants were grown from seeds sown in standard soil, placed in a glasshouse under controlled conditions (at 24/18° C., day/night; 14 hours light; 65% humidity). After spray application the plants were then grown on in a glasshouse under the same conditions and watered twice daily. The test was evaluated at 21 days (100=total damage to plant; 0=no damage to plant).
(§4) Ipomoea hederacea (IPOHE), Amaranthus palmeri (AMAPA), Lolium perenne (LOLPE), Eleusine indica (ELEIN), Echinochloa crus-gaffi (ECHCG), Conyza canadensis (ERICA)

[2] = system: Amaranthus palmeri (AMAPA); assay: Post-emergence efficacy, Method C; details: 400 g/Ha, evaluated at 21 days, 100=total damage to plant, 0=no damage
Method: as §1, §2, §3, §4

Lolium perenne (LOLPE) [3] = assay: Post-emergence efficacy, Method C; details: 400 g/Ha, evaluated at 21 days, 100=total damage to plant, 0=no damage
Method: as §1, §2, §3, §4

[4] = system: Conyza canadensis (ERICA); assay: Post-emergence efficacy, Method C; details: 400 g/Ha, evaluated at 21 days, 100=total damage to plant, 0=no damage
Method: as §1, §2, §3, §4

[5] = system: Ipomoea hederacea (IPOHE); assay: Post-emergence efficacy, Method C; details: 400 g/Ha, evaluated at 21 days, 100=total damage to plant, 0=no damage
Method: as §1, §2, §3, §4

[6] = system: Echinochloa crus-gaffi (ECHCG); assay: Post-emergence efficacy, Method C; details: 400 g/Ha, evaluated at 21 days, 100=total damage to plant, 0=no damage
Method: as §1, §2, §3, §4

[7] = system: Solanum turberosum (SOLTU); assay: Pre-harvest desiccation of crop plants; details: Table E, evaluated after 7 and 14 days (which not stated), 100=total damage to plant, 0=no damage
Method: (§5) Seeds of a variety of test species were sown in standard loam based soil in pots. After cultivation from between 21 and 28 days (post-emergence) under controlled conditions in a glasshouse (at 24/16° C., day/night; 14 hours light; 65% humidity) for warm climate species and (at 20/16° C. day/night; 15 hours light; 65% humidity) for cool climate species.
(§6) The plants were sprayed with an aqueous spray solution derived from dissolving the technical active ingredient formula in a small amount of acetone and a special solvent and emulsifier mixture referred to as IF50 (11.12% Emulsogen EL360 TM+44.44% N-methylpyrrolidone+44.44% Dowanol DPM glycol ether), to create a 50 g/I solution which was then diluted to required concentration using a solution of 1% Empicol ESC70 (Sodium lauryl ether sulphate)+1% ammonium sulphate in water as diluent.
(§7) The delivery of the aqueous spray solution was via a laboratory track sprayer which delivered the aqueous spray composition at a rate of 200 litres per hectare, using a flat fan nozzle (Teejet 11002VS) and an application volume of 200 litre/ha (at 2 bar).
(§8) The test plants were then grown in a glasshouse under controlled conditions (at 24/16° C., day/night; 14 hours light; 65% humidity) for warm climate species and (at 20/16° C. day/night; 15 hours light; 65% humidity) for cool climate species and watered twice daily. After 7 and 14 days the test was evaluated (100=total damage to plant; 0=no damage to plant).
(§9) A value of n/t indicates not tested.
(§10) Glycine Max (GLXMA), Solanum turberosum (SOLTU), Gossypium hirsutum (GOSHI), Brassica napus (BRSNN), Helianthus annus (HELAN)

Glycine Max (GLXMA) = assay: Pre-harvest desiccation of crop plants; details: evaluated after 7 and 14 days (which not stated), 100=total damage to plant, 0=no damage; for Post-emergence dessication efficacy, GLXMA: Table E; for Post emergence dessication efficacy, GLXMA: Table F
Method: as §5, §6, §7, §8, §9, §10

Brassica napus (BRSNN) = assay: Pre-harvest desiccation of crop plants; details: evaluated after 7 and 14 days (which not stated), 100=total damage to plant, 0=no damage; for Post-emergence dessication efficacy, BRSNN: Table E; for Post emergence dessication efficacy, BRSNN: Table F
Method: as §5, §6, §7, §8, §9, §10

[8] = system: Gossypium hirsutum (GOSHI); assay: Pre-harvest desiccation of crop plants; details: Table E, evaluated after 7 and 14 days (which not stated), 100=total damage to plant, 0=no damage
Method: as §5, §6, §7, §8, §9, §10

[9] = system: Euphorbia heterophylla (EPHHL); assay: Post-emergence efficacy, Method B; details: read-out: Control of weed species after post-emergence application, EPHHL
Method: (§11) An “instant formulation”, known as the IF50, containing 50 g/L of the “technical” (i.e. unformulated) active ingredient was prepared by dissolving the active ingredient in a mixture of organic solvents and emulsifier, details of which are provided in the table. This IF50 was then mixed with a small, variable amount of acetone to aid dissolution, before addition of an aqueous solution of 1% v/v ammonium sulphate+1% v/v Empicol ESC70 (Sodium lauryl ether sulphate) adjuvant, as the aqueous diluent, to form an aqueous spray solution which contains a predetermined concentration of the active ingredient (which varies depending on the application rate of the active ingredient to the plants).
(§12) This aqueous spray solution was then sprayed onto the plants, after about 12 days' cultivation. The plants were grown from seeds sown in standard soil, placed in a glasshouse under controlled conditions (at 24/18° C. or 20/16° C., day/night; 16 hours light; 65% humidity). After spray application the plants were then grown on in a glasshouse under the same conditions and watered twice daily. […] the test was evaluated (100=total damage to plant; 0=no damage to plant).
(§13) Ipomoea hederacea (IPOHE), Euphorbia heterophylla (EPHHL), Chenopodium album (CHEAL), Amaranthus retroflexus (AMARE), Lolium perenne (LOLPE), Digitaria sanguinalis (DIGSA), Eleusine indica (ELEIN), Echinochloa crus-galli (ECHCG), Setaria faberi (SETFA)

Eleusine indica (ELEIN) [10] = assay: Post-emergence efficacy, Method B; details: read-out: Control of weed species after post-emergence application, ELEIN
Method: as §11, §12, §13

[11] = system: Amaranthus retroflexus (AMARE); assay: Post-emergence efficacy, Method B; details: read-out: Control of weed species after post-emergence application, AMARE
Method: as §11, §12, §13

Lolium perenne (LOLPE) [12] = assay: Post-emergence efficacy, Method B; details: read-out: Control of weed species after post-emergence application, LOLPE
Method: as §11, §12, §13

[13] = system: Echinochloa crus-galli (ECHCG); assay: Post-emergence efficacy, Method B; details: read-out: Control of weed species after post-emergence application, ECHCG
Method: as §11, §12, §13

Setaria faberi (SETFA) = assay: Post-emergence efficacy, Method B; details: read-out: Control of weed species after post-emergence application, SETFA
Method: as §11, §12, §13

[14] = system: Ipomoea hederacea (IPOHE); assay: Post-emergence efficacy, Method B; details: read-out: Control of weed species after post-emergence application, IPOHE
Method: as §11, §12, §13

[15] = system: Chenopodium album (CHEAL); assay: Post-emergence efficacy, Method B; details: read-out: Control of weed species after post-emergence application, CHEAL
Method: as §11, §12, §13

[16] = system: Digitaria sanguinalis (DIGSA); assay: Post-emergence efficacy, Method B; details: read-out: Control of weed species after post-emergence application, DIGSA
Method: as §11, §12, §13

Helianthus annus (HELAN) = assay: Pre-harvest desiccation of crop plants; details: Table F, evaluated after 7 and 14 days (which not stated), 100=total damage to plant, 0=no damage
Method: as §5, §6, §7, §8, §9, §10

Row | SMILES | Control of weed species after post-emergence application, ELEIN (Eleusine indica (ELEIN) [1]) | Control of weed species after post-emergence application, AMAPA [2] | Control of weed species after post-emergence application, LOLPE (Lolium perenne (LOLPE) [3]) | Control of weed species after post-emergence application, ERICA [4] | Control of weed species after post-emergence application, IPOHE [5] | Control of weed species after post-emergence application, ECHCG [6] | pest or weed control at 1000 g/ha [9] [%] | pest or weed control at 1000 g/ha (Eleusine indica (ELEIN) [10]) [%] | pest or weed control at 1000 g/ha [11] [%] | pest or weed control at 1000 g/ha (Lolium perenne (LOLPE) [12]) [%] | pest or weed control at 1000 g/ha [13] [%] | pest or weed control at 1000 g/ha (Setaria faberi (SETFA)) [%] | pest or weed control at 1000 g/ha [14] [%] | pest or weed control at 1000 g/ha [15] [%] | pest or weed control at 1000 g/ha [16] [%] | further results
1 | Cl.O=S(=O)([O-])CC[n+]1ccc(-c2ccncc2)cn1 [Compound A27] | 80 | 77 | 68 | 65 | 90 | 43 | – | – | – | – | – | – | – | – | – | –
2 | O=C(O)CC[n+]1ccc(-c2ccncn2)cn1.[Cl-] [Compound A28] | – | – | – | – | – | – | 100 | 100 | 100 | 70 | 100 | 40 | 100 | 90 | 100 | Post-emergence dessication efficacy, SOLTU ([7]; 150 g/Ha): 100; Post-emergence dessication efficacy, SOLTU ([7]; 300 g/Ha): 100; Post-emergence dessication efficacy, SOLTU ([7]; 600 g/Ha): 100; Post-emergence dessication efficacy, GLXMA (Glycine Max (GLXMA); 150 g/Ha): 93; Post-emergence dessication efficacy, GLXMA (Glycine Max (GLXMA); 300 g/Ha): 99; Post-emergence dessication efficacy, GLXMA (Glycine Max (GLXMA); 600 g/Ha): 99; Post-emergence dessication efficacy, BRSNN (Brassica napus (BRSNN); 150 g/Ha): 97; Post-emergence dessication efficacy, BRSNN (Brassica napus (BRSNN); 300 g/Ha): 100; Post-emergence dessication efficacy, BRSNN (Brassica napus (BRSNN); 600 g/Ha): 100; Post-emergence dessication efficacy, GOSHI ([8]; 150 g/Ha): 100; Post-emergence dessication efficacy, GOSHI ([8]; 300 g/Ha): 100; Post-emergence dessication efficacy, GOSHI ([8]; 600 g/Ha): 100
3 | O=C(O)CC[n+]1ccc(-c2cccnn2)cn1.[Cl-] [Compound A138, 3-(4-pyridazin-3-ylpyridazin-1-ium-1-yl)propanoic acid chloride] | – | – | – | – | – | – | 100 | 100 | 100 | 100 | 100 | 100 | 40 | 100 | 100 | Post emergence dessication efficacy, HELAN (Helianthus annus (HELAN); 50 g/Ha): 100; Post emergence dessication efficacy, HELAN (Helianthus annus (HELAN); 150 g/Ha): 100; Post emergence dessication efficacy, HELAN (Helianthus annus (HELAN); 600 g/Ha): 100; Post emergence dessication efficacy, GLXMA (Glycine Max (GLXMA); 50 g/Ha): 57 and 37; Post emergence dessication efficacy, GLXMA (Glycine Max (GLXMA); 150 g/Ha): 67 and 72; Post emergence dessication efficacy, GLXMA (Glycine Max (GLXMA); 600 g/Ha): 82 and 90; Post emergence dessication efficacy, BRSNN (Brassica napus (BRSNN); 150 g/Ha): 63 and 98; Post emergence dessication efficacy, BRSNN (Brassica napus (BRSNN); 600 g/Ha): 96 and 100
4 | O=S(=O)([O-])C[n+]1ccc(-c2ncccn2)cn1 [Compound A3, (4-pyrimidin-2-ylpyridazin-1-ium-1-yl)methanesulfonate] | 15 | 65 | 25 | 100 | 83 | 13 | – | – | – | – | – | – | – | – | – | –
